Counter-ions that a name gives are not always drawn.
Target: HPK1 (Homo sapiens (Human), UniProt Q92918)
Assay: HPK1 biochemical enzyme assay (microfluidic mobility shift assay)
Conditions: 1.5 nM HPK1, ATP 1 mM final, 30 min preincubation, 60 min at RT, Caliper EZ Reader; read-out: HPK1 1000UMATP caliper IC50
Outline: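 Mobility shift readout of HPK1 activity after a 60 min RT reaction with 1 mM ATP, 1 μM substrate and 5 mM MgCl2. Enzyme/substrate mix was first exposed to compounds for 30 min, using ten-point curves topping at 3 μM final.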

Sequence of HPK1 (Q92918 whole entry): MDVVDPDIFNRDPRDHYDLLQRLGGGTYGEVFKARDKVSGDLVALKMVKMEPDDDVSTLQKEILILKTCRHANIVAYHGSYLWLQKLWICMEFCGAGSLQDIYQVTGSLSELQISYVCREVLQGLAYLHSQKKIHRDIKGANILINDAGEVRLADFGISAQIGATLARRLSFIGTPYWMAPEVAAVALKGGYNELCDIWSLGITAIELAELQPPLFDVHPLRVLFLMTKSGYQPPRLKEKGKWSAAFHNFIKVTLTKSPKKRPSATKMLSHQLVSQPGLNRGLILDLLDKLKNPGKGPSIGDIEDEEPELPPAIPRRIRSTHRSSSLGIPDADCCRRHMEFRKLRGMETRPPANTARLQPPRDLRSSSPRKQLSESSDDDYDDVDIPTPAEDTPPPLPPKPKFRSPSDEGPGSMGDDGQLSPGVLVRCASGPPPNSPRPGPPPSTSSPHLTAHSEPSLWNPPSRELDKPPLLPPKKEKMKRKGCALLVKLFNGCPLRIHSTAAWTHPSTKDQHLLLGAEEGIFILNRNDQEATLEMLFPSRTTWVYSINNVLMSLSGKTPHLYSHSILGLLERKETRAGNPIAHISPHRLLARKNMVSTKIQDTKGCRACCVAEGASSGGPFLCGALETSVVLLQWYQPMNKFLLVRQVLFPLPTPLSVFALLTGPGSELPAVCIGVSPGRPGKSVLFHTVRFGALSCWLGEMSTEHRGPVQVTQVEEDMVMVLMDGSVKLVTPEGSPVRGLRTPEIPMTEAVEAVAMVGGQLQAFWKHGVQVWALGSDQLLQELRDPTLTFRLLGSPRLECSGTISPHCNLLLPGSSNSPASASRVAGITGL

IC50 [nM] | SMILES
< 100 | Cc1ccc2c(-c3ccc(Nc4ccc(N5CCO[C@H](C(C)(C)O)C5)cn4)c4c3CNC4=O)cnn2c1 [I-489, 7-[[5-[(2S)-2-(1-hydroxy-1-methylethyl)morpholin-4-yl]-2-pyripyl]amino]-4-(6-methylpyrazo-lo[1,5-a]pyridin-3-yl)isoindolin-1-one]
< 100 | CNC1CCN(c2ccc(Nc3ccc(-c4cnc5cccnn45)c4c3C(=O)NC4)nc2)CC1 [I-91, 4-imidazo[1,2-b]pyridazin-3-yl-7-[[5-[4-(methylamino)-1-piperidyl]-2-pyridyl]amino] isoindolin-1-one]
100 to 1000 | C[C@@H]1CCn2c(-c3ccc(Nc4ccc(N5CCC(O)CC5)cn4)c4c3CNC4=O)cnc2C1 (single isomer, unassigned) [I-302]
< 100 | CN(C)Cc1nc(Nc2ccc(-c3cnc4cc(F)ccn34)c3c2C(=O)NC3)ccc1N1CCC[C@@H](C(C)(C)O)C1 [I-745, (R)-7-((6-((dimethylamino)-methyl)-5-(3-(2-hydroxypropan-2-yl)piperidin-1-yl)pyridin-2-yl)amino)-4-(7-fluoroimidazo [1,2-a]pyridin-3-yl)isoindolin-1-one]
> 1000 | CN1CCN(c2ccc(Nc3cnc(-c4cn(C)c5ncccc45)c4c3C(=O)NC4)nc2)CC1 [I-14, 7-[[5-(4-methylpiperazin-1-yl)-2-pyridyl]amino]-4-(1-methylpyrrolo [2,3-b]pyridin-3-yl)-2,3-dihydropyrrolo [3,4-c]pyridin-1-one]
< 100 | Cn1ccc2c(-c3ncc(Nc4ccc([C@H]5CCOC5)c(CN5CC[C@@H](O)C5)n4)c4c3CNC4=O)ccnc21 [I-810, 7-((6-(((R)-3-hydroxypyrroli-din-1-yl)methyl)-5-((R)-THF-3-yl)pyridin-2-yl)amino)-4-(1-methyl-1H-pyrrolo[2,3-b]pyridin-4-yl)-2,3-dihydro-1H-pyrrolo[3,4-c]pyridin-1-one]
< 100 | CC1(O)CCN(c2ccc(Nc3ccc(-c4cnc5cc(F)ccn45)c4c3C(=O)NC4)nc2)CC1 [I-397, 4-(7-fluoroimidazo [1,2-a]pyridin-3-yl)-7-((5-(4-hydroxy-4-methylpiperidin-1-yl)pyridin-2-yl)amino)isoin-dolin-1-one]
< 100 | Cn1ccc2c(-c3ncc(Nc4ccc([C@H]5CCOC5)c(CN)n4)c4c3CNC4=O)ccnc21 [I-829, (R)-7-((6-(aminomethyl)-5-(THF-3-yl)pyridin-2-yl)amino)-4-(1-methyl-1H-pyrrolo[2,3-b]pyridin-4-yl)-2,3-dihydro-1H-pyrrolo[3,4-c]pyridin-1-one]
100 to 1000 | O=C1NCc2c(-c3cnc4cnccn34)ccc(Nc3ccc(S(=O)(=O)N4CCC4)cn3)c21 [I-307, 7-((5-(azetidin-1-ylsulfonyl)-pyridin-2-yl)amino)-4-(imidazo[1,2-a]pyrazin-3-yl)isoindolin-1-one]
< 100 | Cn1ccc2c(-c3ccc(Nc4ccc(N5CC[C@@H](O)C5)cn4)c4c3CNC4=O)ccnc21 [I-278, (R)-7-((5-(3-hydroxy-pyrrolidin-1-yl)pyridin-2-yl)amino)-4-(1-methyl-1H-pyrrolo[2,3-b]pyridin-4-yl)isoindolin-1-one]
100 to 1000 | Cn1ccc2c(-c3ncc(Nc4cccc(N5CC6(CCN6)C5)n4)c4c3CNC4=O)ccnc21 [I-680, 7-((6-(l,6-diazaspiro[3,3]heptan-6-yl)pyridin-2-yl)amino)-4-(1-methyl-1H-pyrrolo[2,3-b]pyridin-4-yl)-2,3-dihydro-1H-pyrrolo[3,4-c]pyridin-1-one]
< 100 | Cc1cccc2c(-c3ccc(Nc4ccc(N5CCN(C)CC5)cn4)c4c3CNC4=O)cnn12 [I-69, 7-[[5-(4-methylpiperazin-1-yl)-2-pyridyl]amino]-4-(7-methylpyrazolo [1,5-a]pyridin-3-yl)isoindolin-1-one]
< 100 | O=C1NCc2c(-c3cnc4cc(F)ccn34)ccc(Nc3ccc(C4CCOC4)c(CN4CCOCC4)n3)c21 (stereo in doubt) [I-721, (R)-4-(7-fluoroimidazo [1,2-a]pyridin-3-yl)-7-((6-(morpliolinomethyl)-5-(tetrahydrofuran-3-yl)pyridin-2-yl)amino)isoin-dolin-1-one]
< 100 | O=C1NCc2c(-c3cnc4cnccn34)ccc(Nc3ccc(N4CCOCC4)cn3)c21 [I-153, 4-imidazo[1,2-a]pyrazin-3-yl-7-[(5-morpholino-2-pyridyl)amino] isoindolin-1-one]
100 to 1000 | CN1CCN(c2ccc(Nc3ccc(-c4cnc5c(ccn5C)c4)c4c3C(=O)NC4)nc2)CC1 [I-44, 7-[[5-(4-methylpiperazin-1-yl)-2-pyridyl]amino]-4-(1-methylpyrrolo [2,3-b]pyridin-5-yl)isoindolin-1-one]
< 100 | COC[C@H]1CN(c2ccc(Nc3ccc(-c4cnc5cc(F)ccn45)c4c3C(=O)NC4)nc2)CCO1 [I-421, (R)-4-(7-fluoroimidazo [1,2-a]pyridin-3-yl)-7-((5-(2-(methoxymeth-yl)morpholino)pyridin-2-yl)amino)isoin-dolin-1-one]
< 100 | Cn1nc(Nc2ccc(-c3cnc4cc(F)ccn34)c3c2C(=O)NC3)cc1C1CCOCC1 [I-408]

IC50 [nM] | SMILES
< 100 | CN(C)Cc1nc(Nc2ccc(-c3cnc4cc(F)ccn34)c3c2C(=O)NC3)ccc1N1CCC(=O)N(C)CC1 [I-534, 7-[[6-[(dimethylamino)-methyl]-5-(4-methyl-5-oxo-1,4-diazepan-1-yl)-2-pyridyl]amino]-4-(7-fluoroimidazo [1,2-a]pyridin-3-yl)isoindolin-1-one Formic acid salt]
100 to 1000 | Cc1cc(-c2ccc(Nc3ccc(N4CCNCC4)cn3)c3c2CNC3=O)c2ccn(C)c2n1 [I-103, 4-(1,6-dimethylpyrrolo [2,3-b]pyridin-4-yl)-7-[(5-piperazin-1-yl-2-pyridyl)amino] isoindolin-1-one]
< 100 | O=C1NCc2c(-c3cnc4c(F)cccn34)ncc(Nc3ccc(N4CC[C@@H](F)[C@@H](O)C4)cn3)c21 [I-659]
< 100 | CC1(N2CCOCC2)CCN(c2ccc(Nc3ccc(-c4cnc5cc(F)ccn45)c4c3C(=O)NC4)nc2)CC1 [I-429, 4-(7-fluoroimidazo [1,2-a]pyridin-3-yl)-7-((5-(4-methyl-4-morpholinopip-eridin-1-yl)pyridin-2-yl)amino)isoin-dolin-1-one]
< 100 | Cn1ccc2c(-c3ccc(Nc4ccc(S(C)(=O)=O)cn4)c4c3CNC4=O)ccnc21 [I-106, 4-(1-methylpyrrolo [2,3-b]pyridin-4-yl)-7-[(5-methylsulfonyl-2-pyridyl)amino] isoindolin-1-one]
< 100 | CC(C)NCc1nc(Nc2ccc(-c3cnc4cc(F)ccn34)c3c2C(=O)NC3)ccc1[C@@H]1CCOC1 [I-558]
100 to 1000 | Cc1cc(-c2ccc(Nc3ccc(N4CCN(C)CC4)cn3)c3c2CNC3=O)c2cc[nH]c2n1 [I-77, 7-[[5-(4-methylpiperazin-1-yl)-2-pyridyl]amino]-4-(6-methyl-1H-pyrrolo[2,3-b]pyridin-4-yl)isoindolin-1-one]
100 to 1000 | CN(C)C(C)(C)c1nc(Nc2ccc(-c3cnc4cc(F)ccn34)c3c2C(=O)NC3)ccc1[C@H]1CCOC1 [I-832, (R)-7-((6-(2-(dimethylami-no)propan-2-yl)-5-(THF-3-yl)pyridin-2-yl)amino)-4-(7-fluoroimidazo [1,2-a]pyridin-3-yl)isoindolin-1-one]
< 100 | Cc1csc2c(-c3ccc(Nc4ccc(N5CCC(O)CC5)cn4)c4c3CNC4=O)ccnc12 [I-361, 7-((5-(4-hydroxypip-eridin-1-yl)pyridin-2-yl)amino)-4-(3-methylthieno [3,2-b]pyridin-7-yl)isoindolin-1-one]
< 100 | Cn1cc(-c2ccc(Nc3ccc(N4CCC(O)CC4)cn3)c3c2CNC3=O)c2cnncc21 [I-425, 7-((5-(4-hydroxy-piperidin-1-yl)pyridin-2-yl)amino)-4-(1-methyl-1H-pyrrolo[2,3-d]pyridazin-3-yl)isoindolin-1-one]
> 1000 | Cn1ccc2c(-c3ncc(Nc4cccc(C5(C)CCNCC5)n4)c4c3CNC4=O)ccnc21 [I-430, 4-(1-methyl-1H-pyrrolo[2,3-b]pyridin-4-yl)-7-((6-(4-methylpiperidin-4-yl)pyridin-2-yl)amino)-2,3-dihydro-1H-pyrrolo[3,4-c]pyridin-1-one]
< 100 | C[C@@H]1C[C@H](O)CCN1c1ccc(Nc2ccc(-c3cnc4cnccn34)c3c2C(=O)NC3)nc1 [I-350, 7-((5-((2R,4R]-4-hydroxy-2-methylpiperidin-1-yl)pyridin-2-yl)amino)-4-(imidazo[1,2-a]pyrazin-3-yl)isoindolin-1-one]
< 100 | C[C@H]1C[C@@H](O)CCN1c1ccc(Nc2ccc(-c3cnc4cnccn34)c3c2C(=O)NC3)nc1 [I-349, 7-((5-((2S,4S)-4-hydroxy-2-methylpiperidin-1-yl)pyridin-2-yl)amino)-4-(imidazo[1,2-a]pyrazin-3-yl)isoindolin-1-one]
< 100 | COCC1(O)CCN(c2ccc(Nc3ccc(-c4ccnc5c4ccn5C)c4c3C(=O)NC4)nc2)CC1 [I-298, 7-((5-(4-hydroxy-4-(methoxymeth-yl)piperidin-1-yl)pyridin-2-yl)amino)-4-(1-methyl-1H-pyrrolo[2,3-b]pyridin-4-yl)isoindolin-1-one]
< 100 | CN1CCOc2c(-c3ccc(Nc4ccc(N5CCNCC5)cn4)c4c3CNC4=O)ccnc21 [I-105, 4-(4-methyl-2,3-dihydropyrido [3,2-b][1.4]oxazin-8-yl)-7-[(5-piperazin-1-yl-2-pyridyl)amino] isoindolin-1-one]
< 100 | O=C1NCc2c(-c3cnc4cc(F)ccn34)ccc(Nc3ccc(N4CCC[C@@H](N5CCOCC5)C4)cn3)c21 [I-502, (R)-4-(7-fluoroimidazo [1,2-a]pyridin-3-yl)-7-((5-(3-morpholinopip-eridin-1-yl)pyridin-2-yl)amino)isoin-dolin-1-one]

From patent publication US11021481B2, “Substituted isoindolin-1-ones and 2,3-dihydro-1h-pyrrolo[3,4-c]pyridin-1-ones as HPK1 antagonists” (Nimbus Saturn, Inc., priority 2019, dated 2021)
